Measurements published in ChEMBL document CHEMBL3714739, “Compounds for the treatment of pain and screening methods therefor” (2008).

Assays:
[1] = molecular target: T1, Mas-related G-protein coupled receptor member X2 (Homo sapiens) (UniProt Q96LB1); test: Activation of human MrgX2 receptor expressed in NIH/3T3 cells incubated for 5 days by beta-galactosidase reporter gene assay relative to STIA; type: cell-based; conditions: NIH3T3
T1 sequence (whole entry): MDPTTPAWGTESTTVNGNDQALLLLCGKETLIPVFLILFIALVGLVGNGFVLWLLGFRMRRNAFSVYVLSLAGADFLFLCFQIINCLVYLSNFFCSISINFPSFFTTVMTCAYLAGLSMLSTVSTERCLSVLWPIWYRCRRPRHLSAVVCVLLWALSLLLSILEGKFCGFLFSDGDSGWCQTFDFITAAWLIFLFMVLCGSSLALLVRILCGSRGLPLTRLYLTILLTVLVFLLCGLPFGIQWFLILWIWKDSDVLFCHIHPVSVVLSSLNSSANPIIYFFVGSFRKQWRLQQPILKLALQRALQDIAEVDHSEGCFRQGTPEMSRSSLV

[2] = molecular target: Mas-related G-protein coupled receptor member X1 (Homo sapiens) (UniProt Q96LB2); test: Activation of human MrgX1 receptor expressed in NIH/3T3 cells incubated for 5 days by beta-galactosidase reporter gene assay relative to Bam22; type: cell-based; conditions: NIH3T3
Sequence of Mas-related G-protein coupled receptor member X1 (Homo sapiens) (Q96LB2 whole entry): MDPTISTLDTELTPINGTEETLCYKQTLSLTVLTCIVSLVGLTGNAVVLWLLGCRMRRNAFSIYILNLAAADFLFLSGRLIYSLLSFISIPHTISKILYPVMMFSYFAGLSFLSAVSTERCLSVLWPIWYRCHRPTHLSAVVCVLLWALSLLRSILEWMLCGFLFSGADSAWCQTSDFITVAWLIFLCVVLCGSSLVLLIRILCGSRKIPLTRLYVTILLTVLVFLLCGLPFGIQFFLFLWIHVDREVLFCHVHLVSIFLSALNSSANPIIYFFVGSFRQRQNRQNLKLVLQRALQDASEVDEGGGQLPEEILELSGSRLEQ

Compound | Efficacy [1] | Efficacy [2]
N=C(N)NCCC[C@H](C(N)=O)n1c(-c2cccc(Oc3ccccc3)c2)nc2cc(C(=O)Nc3ccc4cn[nH]c4c3)ccc21 | 2% | 221%
N=C(N)NCCC[C@@H](C(N)=O)n1c(-c2cccc(Oc3ccccc3)c2)nc2cc(C(=O)NCc3cccc(C(F)(F)F)c3)ccc21 | 21% | 95%
N=C(N)NCCC[C@H](C(N)=O)n1c(-c2cccc(Oc3ccccc3)c2)nc2cc(C(=O)N3CCOCC3)ccc21 | 6% | 203%
